One test deals with mice. The settings on record: radiant heat tail flick assay; cited from earlier work. In general terms: In hot-plate and tail-flick tests a longer latency is read as antinociception.
The next test has as its target DOP. Particulars: read-out: Ki at DOP; CHO cells; cited from earlier work.
The target in the next test is KOP. Particulars: read-out: Ki at KOP; CHO cells; cited from earlier work.
In test [1] the target is human opioid receptor OPRM_HUMAN (hMOP), wild type (Homo sapiens, UniProt P35372). Type of test: cell-based. The settings on record: for Emax: WT hMOP, normalized to Emax of DAMGO.
Chain of human opioid receptor OPRM_HUMAN (hMOP), wild type (P35372 whole entry): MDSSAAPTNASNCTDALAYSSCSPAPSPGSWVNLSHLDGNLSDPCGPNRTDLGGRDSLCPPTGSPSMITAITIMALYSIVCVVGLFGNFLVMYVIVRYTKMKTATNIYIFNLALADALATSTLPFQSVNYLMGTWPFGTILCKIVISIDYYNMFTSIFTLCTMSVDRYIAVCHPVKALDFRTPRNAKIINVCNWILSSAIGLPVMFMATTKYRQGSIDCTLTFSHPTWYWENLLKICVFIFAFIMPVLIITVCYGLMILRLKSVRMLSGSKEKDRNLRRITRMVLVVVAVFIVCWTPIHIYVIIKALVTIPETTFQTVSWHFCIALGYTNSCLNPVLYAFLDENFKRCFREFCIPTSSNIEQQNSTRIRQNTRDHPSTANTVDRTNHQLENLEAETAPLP
The next test addresses hMOP H321F mutant (Homo sapiens, UniProt P35372, H321F). As to the kind of experiment: Gαi-mediated cAMP inhibition assay, hMOP H321F mutant. The settings on record: for potency reduction at His321F mutant compared to wild-type receptor: EC50 mutant vs wild type; for decrease in efficacy at His321F mutant: Emax mutant vs wild type; for Emax: normalized to Emax of DAMGO. Type of test: cell-based.

Another test has as its system human DOP. The settings on record: HEK 293 cells, very low potency; cited from earlier work.
A further test has as its system human MOP. Particulars: HEK 293 cells; cited from earlier work.
The next test has as its target hMOP Asn129K mutant (Homo sapiens, UniProt P35372, N129K). Kind of test: Gαi-mediated cAMP inhibition assay, hMOP Asn129K mutant. The format is cell-based. Particulars: for Emax: normalized to Emax of DAMGO.
The next test deals with MOP. Particulars: read-out: Ki at MOP; CHO cells; cited from earlier work.
The next test has as its system rats. The settings on record: hot plate assay; cited from earlier work.
For a further test, the system named is human KOP. Particulars: HEK 293 cells; cited from earlier work.
The target of a further test is opioid receptors. The settings on record: read-out: Ki for opioid receptors; cited from earlier work.
Another test deals with α-adrenergic receptors. Particulars: read-out: Ki for α-adrenergic receptors; cited from earlier work.
The mark [2] stands for this setting: HEK 293T cells, wild type (WT) hMOP, cAMP assay, Gi.
[3] abbreviates: HEK 293T cells, hMOP H321F mutant, cAMP assay, Gi.
Where [4] appears, read: HEK 293T cells, hMOP Asn129K mutant, cAMP assay, Gi.

A word on the Ki: it is the equilibrium dissociation constant of an inhibitor or competing ligand from its target. For orientation: Emax means the greatest response seen or fitted, relative to the assay's reference. One may read the EC50 as the concentration needed to bring the measured effect to its halfway point.

Chain of hMOP Asn129K mutant (P35372 whole entry N129K): as the sequence (P35372 whole entry) above, with N129K counted along it
Chain of hMOP H321F mutant (P35372 whole entry H321F): as the sequence (P35372 whole entry) above, with H321F counted along it

Take `CC[C@@H]1CN2CC[C@@]3(O)C(=Nc4cccc(OC)c43)[C@@H]2C[C@@H]1/C(=C\OC)C(=O)OC` [7OH, 7-hydroxymitragynine]: the “analgesic effect compared to morphine” value with mice and in the test with rats was “significantly more potent than morphine” throughout. The figures for the Ki on DOP, at KOP and at MOP were 0.091 ± 0.008 µM, 0.132 ± 0.007 µM and 0.037 ± 0.004 µM, respectively. Further, the values for the Emax (in test [1]; at hMOP H321F mutant (hMOP H321F mutant); on hMOP Asn129K mutant (hMOP Asn129K mutant)) were 89±3.8%, 60 ± 9% and 92 ± 3.2%, respectively. Besides, on hMOP H321F mutant (cAMP assay), the “potency reduction at His321F mutant compared to wild-type receptor” value turned out to be 2.5 fold. The “decrease in efficacy at His321F mutant” value at hMOP H321F mutant (cAMP assay) was more than 25%. In addition, the “functional activity at human DOP” value in the test on human DOP was “competitive antagonists”. Moreover, the “functional activity at human MOP” value in the test with human MOP is recorded as “partial agonists”. The “potency reduction at Asn129K mutant compared to wild-type receptor” value at hMOP Asn129K mutant (EC50 mutant vs wild type, cAMP assay) is 5 fold. Also, the “functional activity at human KOP” value in the test on human KOP was “competitive antagonists”.
With `CC[C@@H]1CN2CC[C@]3(Nc4cccc(OC)c4C3=O)[C@@H]2C[C@@H]1/C(=C\OC)C(=O)OC` [MP, mitragynine pseudoindoxyl], the “potency relative to morphine” value with mice is recorded as 1.5 fold. The inhibitory constant (Ki) on DOP was 0.003 ± 0.0013 µM; on KOP it was 0.024 ± 0.0009 µM; at MOP, 0.0008 ± 0.0002 µM. The EC50 in test [1] (setting [2]) was 0.00055 µM; at hMOP H321F mutant (setting [3]), 0.0169 µM; at hMOP Asn129K mutant (setting [4]), 0.0009 µM. Moreover, the “pEC50 ± SEM” value in test [1] (setting [2]) was found to be 9.28±0.11; on hMOP H321F mutant (setting [3]) it was 7.77 ± 0.27; at hMOP Asn129K mutant (setting [4]) it was 9.04 ± 0.084. Besides, the values for the Emax (in test [1]; on hMOP H321F mutant (hMOP H321F mutant); on hMOP Asn129K mutant (hMOP Asn129K mutant)) were 81±3.6%, 58.9 ± 6.7% and 88 ± 2.97%, respectively. Moreover, the “potency reduction at His321F mutant compared to wild-type receptor” value on hMOP H321F mutant (cAMP assay) was found to be 32 fold. The “decrease in efficacy at His321F mutant” value on hMOP H321F mutant (cAMP assay) is listed as more than 25%.
With mitragynine [MG], the “analgesic effect compared to morphine” value with mice and in the test with rats was “significantly lower than morphine” throughout. Also, the figures for the inhibition constant Ki at opioid receptors, at MOP and on α-adrenergic receptors were 0.161 to 0.198 µM, 0.23 ± 0.047 µM and 1.34 to 9.29 µM, respectively. Moreover, the “functional activity at human DOP” value in the test on human DOP was “competitive antagonists”. In addition, the “functional activity at human MOP” value in the test with human MOP is given as “partial agonists”. For the same compound, the “functional activity at human KOP” value in the test with human KOP is “competitive antagonists”.
